Measured values reported in PMC6905855, “Agonist-specific voltage-dependent gating of lysosomal two-pore Na^+ channels” (eLife, 2019).
“And” between values parts separate entries of the source, which are not always exact repeats. Equal entries are not always repeated.

Experiments:
[1] = molecular target: T1, surface-expressing mutant TPC2 channel (TPC2^LL/AA) in HEK293 cells (Homo sapiens, UniProt Q8NHX9, L11A/L12A); assay: Whole-cell recordings of ITPC2-LL/AA; assay type: cell-based
T1 construct: expressed in transfected cells; host or cells: HEK293
T1 sequence (Q8NHX9 whole entry L11A/L12A): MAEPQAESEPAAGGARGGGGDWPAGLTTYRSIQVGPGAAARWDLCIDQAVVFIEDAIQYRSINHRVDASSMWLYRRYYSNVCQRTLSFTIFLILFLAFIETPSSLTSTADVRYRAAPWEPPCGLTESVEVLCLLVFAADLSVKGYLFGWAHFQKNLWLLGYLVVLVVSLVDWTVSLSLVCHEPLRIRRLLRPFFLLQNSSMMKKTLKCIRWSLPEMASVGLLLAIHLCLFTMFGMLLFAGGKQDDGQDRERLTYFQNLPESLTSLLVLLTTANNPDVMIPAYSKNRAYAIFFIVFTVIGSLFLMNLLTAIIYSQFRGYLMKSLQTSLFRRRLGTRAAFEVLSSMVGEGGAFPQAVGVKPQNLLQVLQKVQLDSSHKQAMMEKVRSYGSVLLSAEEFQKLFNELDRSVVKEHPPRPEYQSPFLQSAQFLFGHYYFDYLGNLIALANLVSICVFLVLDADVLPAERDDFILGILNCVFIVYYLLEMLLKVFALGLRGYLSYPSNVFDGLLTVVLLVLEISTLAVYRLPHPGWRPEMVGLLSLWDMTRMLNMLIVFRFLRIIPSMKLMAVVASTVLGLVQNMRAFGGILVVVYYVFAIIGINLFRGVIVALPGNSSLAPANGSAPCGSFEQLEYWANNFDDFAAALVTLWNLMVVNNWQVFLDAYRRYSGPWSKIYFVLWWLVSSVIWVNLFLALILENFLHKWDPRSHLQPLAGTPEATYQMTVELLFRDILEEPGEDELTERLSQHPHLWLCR
In short: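 HEK293 cells transiently expressing EGFP-tagged human TPC2 L11A/L12A, a plasma-membrane-targeted mutant, recorded 24–36 h post-transfection. Whole-cell patch clamp with fast perfusion of bath solutions; currents digitized at 10 kHz and filtered at 2 kHz.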

hTPC1 = molecular target: T2, hTPC1 (Homo sapiens, UniProt Q9ULQ1); assay: Whole-endolysosome recordings of ITPC1; assay type: biochemical
T2 construct: expressed in transfected cells; host or cells: Cos1
Protocol: It was therefore of interest to explore whether TCAs/LyNa-VAs could also act on TPC1. To investigate this, we used two different voltage paradigms. […] Second, we used a tail current paradigm to measure the amplitude of the peak inward current at −120 mV following prolonged steps to various potentials (Figure 4E).
Figure 4. […] HP = 0 mV. […] Dotted lines in A indicate where the currents were measured. […] Data are presented as Mean ± S.E.M (n = 3 patches). […] (G) Normalized I-V plots of basal voltage-dependent currents in WT TPC1- and TPC1^R540I-transfected cells. […] Figure 4—source data 1. […] Figure 4—figure supplement 1. […] (A) A voltage protocol that elicited ITPC1 tail currents as shown in Figure 4E (from −140 to 100 mV with a ∆V = 20 mV, 1 s with a 10 s inter-step interval). Arrows indicate where tail currents were measured. (B) A voltage protocol that elicited ITPC1 tail currents as shown in C. […] HP = 0 mV. […] (A) Basal whole-endolysosome ITPC1 (left) or ITPC1-R540I (right) was elicited by voltage steps (−140 to +100 mV with ΔV = 20 mV) in the absence of PI(3,5)P2 in TPC1-transfected Cos1 cells ([She et al., 2019]). Tail currents were elicited at −120 mV. (B) The effects of PI(3,5)P2 (0.3 µM) on ITPC1 (left) and ITPC1-R540I (right) step currents. […] A preconditioning voltage (+80 mV, 0.1 s) was applied before voltage steps starting from −140 to 100 mV (0.5 s, ∆V = 20 mV).
All TPC1 and TPC2 mutants were generated with a site-directed mutagenesis kit (Qiagen) using EGFP- human TPC1 and TPC2 as the templates. All constructs were confirmed by DNA sequencing.
Whole-endolysosome recordings were performed on manually isolated enlarged endolysosomes ([Wang et al., 2012]). In brief, a patch pipette was pressed against a cell and quickly pulled away to slice the cell membrane. Enlarged endolysosomes were released into a dish and identified by monitoring EGFP-TPC1/2 or the mCherry-TPC1/2 fluorescence. After formation of a gigaseal between the patch pipette and the enlarged endolysosome, capacitance transients were compensated. Voltage steps of several hundred mVs with millisecond duration were then applied to break into the vacuolar membrane. The whole-endolysosome configuration was verified by the re-appearance of capacitance transients after break-in.
Data were collected using an Axopatch 200A patch clamp amplifier, Digidata 1440, and pClamp 10.2 software (Axon Instruments). Whole-endolysosome currents were digitized at 10 kHz and filtered at 2 kHz. All experiments were conducted at room temperature (21–23°C), and all recordings were analyzed with pClamp 10.2, and Origin 8.0 (OriginLab, Northampton, MA). The permeability to cations (relative to PNa) was estimated based on following equations ([Lewis, 1979]) and Erev measurement under bi-ionic conditions:(1) PX/PNa=γNa/γX{[Na^+]Luminal/[X^+]Cytoplasmic}{exp([…])} (2) PCa/PNa=γNa/γCa{[Na^+]Cytoplasmic/[4[Ca^2+]Luminal}{exp(ErevF/RT)}{1+exp(ErevF/RT)} where R, T, F, Erev, and γ are, respectively, the gas constant, absolute temperature, Faraday constant, reversal potential, and activity coefficient. The liquid junction potentials were measured and corrected as described ([Neher, 1992]).

hTPC2 = molecular target: T3, hTPC2 (Homo sapiens, UniProt Q8NHX9); assay: Whole-endolysosome recordings of ITPC2; assay type: biochemical; details: for inactivation of ITPC2, I500ms / I10ms: @-120mV; for time course of LyNa-VA1.2-induced ITPC2: EL
T3 construct: expressed in transfected cells; host or cells: Cos1 and HEK293
T3 sequence (Q8NHX9 whole entry): as the sequence (Q8NHX9 whole entry L11A/L12A) above, with A11L, A12L counted along it

[2] = whole cell, 200 µM, individual recordings
[3] = whole-cell, 200 µM, mean ± S.E.M
[4] = lysosome, 200 µM, individual recordings
[5] = whole-endolysosome, 200 µM, mean ± S.E.M

SMILES: CNCCCN1c2ccccc2CCc2ccccc21 [LyNa-VA1.2, Desipramine]
- Latency of induced ITPC2 [1, 2]: 14 s and 12 s and 20 s
- Time constant (τ) of induced ITPC2 [1, 2]: 55 s and 48 s and 30.1 s and 39.1 s
- EC50 ([1]; whole-cell recordings at −140 mV, TPC2^LL/AA-transfected HEK293 cells, read-out: EC50): 87 ± 8 µM
- latency of TPC2 activation [1, 3]: 15 ± 2 s
- time constant (τ) of TPC2 activation [1, 3]: 43 ± 5 s
- Dose-dependent activation of TPC1 (normalized ITPC1) (hTPC1; 3 µM, individual patches): 0.01236 and 0.1007 and 0.1129
- Dose-dependent activation of TPC1 (normalized ITPC1) (hTPC1; 3 µM, mean): 0.07532
- Dose-dependent activation of TPC1 (normalized ITPC1) (hTPC1; 10 µM, individual patches): 0.3905 and 0.6013 and 0.2982
- Dose-dependent activation of TPC1 (normalized ITPC1) (hTPC1; 10 µM, mean): 0.43
- Dose-dependent activation of TPC1 (normalized ITPC1) (hTPC1; 30 µM, individual patches): 0.9756 and 1 and 0.7567
- Dose-dependent activation of TPC1 (normalized ITPC1) (hTPC1; 30 µM, mean): 0.9108
- Dose-dependent activation of TPC1 (normalized ITPC1) (hTPC1; 100 µM, individual patches): 1 (2×) and 0.518
- Dose-dependent activation of TPC1 (normalized ITPC1) (hTPC1; 100 µM, mean): 0.8393
- Dose-dependent activation of TPC1 (normalized ITPC1) (hTPC1; 300 µM, individual patches): 0.9299 and 0.7273
- Dose-dependent activation of TPC1 (normalized ITPC1) (hTPC1; 300 µM, mean): 0.8286
- EC50 (hTPC1; whole-endolysosome, n = 3 patches, read-out: EC50, activation of TPC1): 10 ± 1 µM
- inactivation of ITPC2, I500ms / I10ms (hTPC2; PI(3,5)P2 0.3 µM, LyNa-VA1.2 100 µM, LyNA1 300 µM, individual tests): 0.6243 and 0.7434 and 0.4902 and 0.5999 and 0.6758
- inactivation of ITPC2, I500ms / I10ms (hTPC2; mean): 0.6267
- time course of LyNa-VA1.2-induced ITPC2 (hTPC2; time 0 s): -0.016
- time course of LyNa-VA1.2-induced ITPC2 (hTPC2; time 2 s): -0.01474
- time course of LyNa-VA1.2-induced ITPC2 (hTPC2; time 4 s): -0.01598
- time course of LyNa-VA1.2-induced ITPC2 (hTPC2; time 6 s): -0.00988
- time course of LyNa-VA1.2-induced ITPC2 (hTPC2; time 8 s): -0.00688
- time course of LyNa-VA1.2-induced ITPC2 (hTPC2; time 10 s): -0.02054
- time course of LyNa-VA1.2-induced ITPC2 (hTPC2; time 12 s): -0.02108
- time course of LyNa-VA1.2-induced ITPC2 (hTPC2; time 14 s): -0.1089
- time course of LyNa-VA1.2-induced ITPC2 (hTPC2; time 16 s): -0.1984
- time course of LyNa-VA1.2-induced ITPC2 (hTPC2; time 18 s): -0.2507
- time course of LyNa-VA1.2-induced ITPC2 (hTPC2; time 20 s): -0.3079
- time course of LyNa-VA1.2-induced ITPC2 (hTPC2; time 22 s): -0.5611
- time course of LyNa-VA1.2-induced ITPC2 (hTPC2; time 24 s): -0.7092
- time course of LyNa-VA1.2-induced ITPC2 (hTPC2; time 26 s): -0.8241
- time course of LyNa-VA1.2-induced ITPC2 (hTPC2; time 28 s): -0.8579
- time course of LyNa-VA1.2-induced ITPC2 (hTPC2; time 30 s): -0.8577
- time course of LyNa-VA1.2-induced ITPC2 (hTPC2; time 32 s): -0.9123
- time course of LyNa-VA1.2-induced ITPC2 (hTPC2; time 34 s): -1
- time course of LyNa-VA1.2-induced ITPC2 (hTPC2; time 36 s): -0.9719
- time course of LyNa-VA1.2-induced ITPC2 (hTPC2; time 38 s): -0.9923
- time course of LyNa-VA1.2-induced ITPC2 (hTPC2; time 40 s): -0.9868
- time course of LyNa-VA1.2-induced ITPC2 (hTPC2; time 42 s): -0.989
- Latency of induced ITPC2 (hTPC2; [4]): 6 s and 8 s and 10 s
- Time constant (τ) of induced ITPC2 (hTPC2; [4]): 6.38 s and 6 s and 5.4 s
- ITPC2 (hTPC2; whole endolysosome recordings with 100 µM of LyNa-VAs at −120 mV): 1120 ± 94 pA
- latency of TPC2 activation (hTPC2; [5]): 7 ± 1 s
- time constant (τ) of TPC2 activation (hTPC2; [5]): 8 ± 2 s
